Assay [1] has as its target T1, PPO2 R128A ΔG210 in Escherichia coli hemG (Amaranthus tuberculatus, UniProt Q0NZW9, DEL210/R128A, cells depend on it).
T1 sequence (Q0NZW9 with tags, fused parts or gaps R128A/DEL210): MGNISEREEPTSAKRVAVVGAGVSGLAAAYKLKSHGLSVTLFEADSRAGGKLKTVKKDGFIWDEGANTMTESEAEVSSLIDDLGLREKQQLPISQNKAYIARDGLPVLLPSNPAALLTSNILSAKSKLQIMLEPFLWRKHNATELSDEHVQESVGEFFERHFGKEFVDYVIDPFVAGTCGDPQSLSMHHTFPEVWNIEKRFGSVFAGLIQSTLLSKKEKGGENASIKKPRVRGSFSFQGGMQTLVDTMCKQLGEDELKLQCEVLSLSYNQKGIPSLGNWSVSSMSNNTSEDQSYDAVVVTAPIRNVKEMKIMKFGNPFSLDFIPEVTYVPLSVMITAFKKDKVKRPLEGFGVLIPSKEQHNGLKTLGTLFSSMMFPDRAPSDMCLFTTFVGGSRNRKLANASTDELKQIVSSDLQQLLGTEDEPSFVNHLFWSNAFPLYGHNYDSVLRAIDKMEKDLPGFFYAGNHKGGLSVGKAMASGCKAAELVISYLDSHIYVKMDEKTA
It is filed as cell-based. The conditions noted are these: read-out: IC50 (E. coli hemG growth).

The target of a further assay is T2, PPO2 R128N ΔG210 (Amaranthus tuberculatus, UniProt Q0NZW9, DEL210-210/R128N).
T2 sequence (Q0NZW9 with tags, fused parts or gaps R128N/DEL210-210): T1 sequence (Q0NZW9 with tags, fused parts or gaps R128A/DEL210) with A98N
Description: biochemical. It counts as biochemical.

The target of a further assay is T3, PPO2 R128A ΔG210 (Amaranthus tuberculatus, UniProt Q0NZW9, DEL210/R128A).
T3 sequence (Q0NZW9 with tags, fused parts or gaps R128A/DEL210): T1 sequence (Q0NZW9 with tags, fused parts or gaps R128A/DEL210)
Description: biochemical. It counts as biochemical.

Assay [2] concerns the target T4, PPO2 R128N ΔG210 in Escherichia coli hemG (Amaranthus tuberculatus, UniProt Q0NZW9, DEL210-210/R128N, cells depend on it).
T4 sequence (Q0NZW9 with tags, fused parts or gaps R128N/DEL210-210): T1 sequence (Q0NZW9 with tags, fused parts or gaps R128A/DEL210) with A98N
It counts as cell-based. As to conditions: read-out: IC50 (E. coli hemG growth).

A further assay concerns the target T5, PPO2 R128T ΔG210 (Amaranthus tuberculatus, UniProt Q0NZW9, DEL210-210/R128T).
T5 sequence (Q0NZW9 with tags, fused parts or gaps R128T/DEL210-210): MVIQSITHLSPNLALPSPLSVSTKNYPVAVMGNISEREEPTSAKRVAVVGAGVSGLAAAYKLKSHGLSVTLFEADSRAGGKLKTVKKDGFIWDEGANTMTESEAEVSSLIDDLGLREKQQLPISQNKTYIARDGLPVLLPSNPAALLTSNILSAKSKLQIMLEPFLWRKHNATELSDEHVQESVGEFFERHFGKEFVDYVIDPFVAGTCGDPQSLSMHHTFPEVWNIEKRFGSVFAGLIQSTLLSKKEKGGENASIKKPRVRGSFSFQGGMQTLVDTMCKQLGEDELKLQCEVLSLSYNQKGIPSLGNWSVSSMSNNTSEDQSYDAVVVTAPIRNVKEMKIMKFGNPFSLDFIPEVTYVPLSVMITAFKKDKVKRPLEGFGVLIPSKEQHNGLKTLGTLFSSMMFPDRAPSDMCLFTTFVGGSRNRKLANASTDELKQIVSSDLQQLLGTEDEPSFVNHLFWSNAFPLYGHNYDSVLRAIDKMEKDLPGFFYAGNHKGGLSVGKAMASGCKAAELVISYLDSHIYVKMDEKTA
It is filed as biochemical.

Another assay concerns the target T6, PPO2 R128Q ΔG210 (Amaranthus tuberculatus, UniProt Q0NZW9, DEL210-210/R128Q).
T6 sequence (Q0NZW9 with tags, fused parts or gaps R128Q/DEL210-210): T1 sequence (Q0NZW9 with tags, fused parts or gaps R128A/DEL210) with A98Q
As to the kind of experiment: biochemical. It is filed as biochemical.

Where a chain is given by its changes, count along the chain named.

As for `CC(C)N(C)S(=O)(=O)NC(=O)c1cc(-n2c(=O)cc(C(F)(F)F)n(C)c2=O)c(F)cc1Cl` [Saflufenacil, saflufenacil], the IC50 (in assay [1]; on PPO2 R128N ΔG210; against PPO2 R128A ΔG210; in assay [2]; at PPO2 R128T ΔG210; against PPO2 R128Q ΔG210) was over 10 µM each time.
In the case of `CS(=O)(=O)NC(=O)c1cc(Oc2ccc(C(F)(F)F)cc2Cl)ccc1[N+](=O)[O-]` [Fomesafen, fomesafen], the IC50 at PPO2 R128N ΔG210, against PPO2 R128A ΔG210, at PPO2 R128T ΔG210 and against PPO2 R128Q ΔG210 was over 10 µM in each case.
`C#CCN1C(=O)C(F)(F)Oc2cc(F)c(-n3c(=O)n(C)c(=S)n(C)c3=O)cc21` [Trifludimoxazin, trifludimoxazin]: the IC50 (in general, the point on the concentration scale where inhibition reaches its midpoint) in assay [1] came to 0.0465 µM; at PPO2 R128N ΔG210 it was 0.175 µM; at PPO2 R128A ΔG210, 0.033 µM; in assay [2], 0.00987 µM; against PPO2 R128T ΔG210, 0.0748 µM; against PPO2 R128Q ΔG210 it was 0.0145 µM. In addition, the Resistance factor at PPO2 R128N ΔG210 worked out at 714; on PPO2 R128A ΔG210 it was 135; at PPO2 R128T ΔG210, 305; on PPO2 R128Q ΔG210, 59.
Take `CCOC(=O)C(C)OC(=O)c1cc(Oc2ccc(C(F)(F)F)cc2Cl)ccc1[N+](=O)[O-]` (stereo not shown) [Lactofen, lactofen]: the IC50 in assay [1] is over 10 µM; on PPO2 R128N ΔG210 it was over 10 µM; in assay [2], over 10 µM; at PPO2 R128T ΔG210, 3.92 µM; at PPO2 R128Q ΔG210, 1.75 µM.
